In paper PMC8398766, “Do Small Molecules Activate the TrkB Receptor in the Same Manner as BDNF? Limitations of Published TrkB Low Molecular Agonists and Screening for Novel TrkB Orthosteric Agonists” (Pharmaceuticals, 2021):
Several values for one entry are separate records, joined by “and”; a condition that tells them apart may be missing. Equal values may be shown once.

Columns and labels:
Test in all cases: BioPrint Profile Panel
Format in all cases: binding
[1] = molecular target: T1, α1B (Homo sapiens, UniProt P35368); details: Antagonist, Receptor, read-out: % of specific inhibition
T1 construct: purchased Eurofins Discovery (Cerep) BioPrint Profile Panel
Description: (§1) The BioPrint® Profile Panel service offered by Eurofins Discovery (Poitiers, France) was chosen to perform selectivity analysis.

[2] = molecular target: T2, AR (Homo sapiens, UniProt P10275, T878A); details: Agonist, Receptor, read-out: % of specific inhibition
T2 construct: purchased Eurofins Discovery (Cerep) BioPrint Profile Panel
Description: as §1

[3] = molecular target: T3, MT1 (ML1A) (Homo sapiens, UniProt P48039); details: Agonist, Receptor, read-out: % of specific inhibition
T3 construct: purchased Eurofins Discovery (Cerep) BioPrint Profile Panel
Description: as §1

[4] = molecular target: T4, V1a (Homo sapiens, UniProt P37288); details: Agonist, Receptor, read-out: % of specific inhibition
T4 construct: purchased Eurofins Discovery (Cerep) BioPrint Profile Panel
Description: as §1

[5] = tested on: sigma; details: 10 μM; Agonist; Receptor
Description: as §1

[6] = molecular target: T5, M3 (Homo sapiens, UniProt P20309); details: Antagonist, Receptor, read-out: % of specific inhibition
T5 construct: purchased Eurofins Discovery (Cerep) BioPrint Profile Panel
Description: as §1

[7] = molecular target: T6, H3 (Homo sapiens, UniProt Q9Y5N1); details: Agonist, Receptor, read-out: % of specific inhibition
T6 construct: purchased Eurofins Discovery (Cerep) BioPrint Profile Panel
Description: as §1

[8] = tested on: N muscle-type; details: 10 μM; Antagonist; Receptor
Description: as §1

[9] = tested on: NMDA; details: 10 μM; Antagonist; Ion Channel
Description: as §1

[10] = molecular target: T7, CCK1 (Homo sapiens, UniProt P32238); details: Agonist, Receptor, read-out: % of specific inhibition
T7 construct: purchased Eurofins Discovery (Cerep) BioPrint Profile Panel
Description: as §1

[11] = molecular target: T8, CCK2 (CCKB) (Homo sapiens, UniProt P32239); details: Agonist, Receptor, read-out: % of specific inhibition
T8 construct: purchased Eurofins Discovery (Cerep) BioPrint Profile Panel
Description: as §1

[12] = molecular target: T9, V2 (Homo sapiens, UniProt P30518); details: Agonist, Receptor, read-out: % of specific inhibition
T9 construct: purchased Eurofins Discovery (Cerep) BioPrint Profile Panel
Description: as §1

[13] = molecular target: T10, APJ (apelin) (Homo sapiens, UniProt P35414); details: Agonist, Receptor, read-out: % of specific inhibition
T10 construct: purchased Eurofins Discovery (Cerep) BioPrint Profile Panel
T10 sequence (P35414 whole entry): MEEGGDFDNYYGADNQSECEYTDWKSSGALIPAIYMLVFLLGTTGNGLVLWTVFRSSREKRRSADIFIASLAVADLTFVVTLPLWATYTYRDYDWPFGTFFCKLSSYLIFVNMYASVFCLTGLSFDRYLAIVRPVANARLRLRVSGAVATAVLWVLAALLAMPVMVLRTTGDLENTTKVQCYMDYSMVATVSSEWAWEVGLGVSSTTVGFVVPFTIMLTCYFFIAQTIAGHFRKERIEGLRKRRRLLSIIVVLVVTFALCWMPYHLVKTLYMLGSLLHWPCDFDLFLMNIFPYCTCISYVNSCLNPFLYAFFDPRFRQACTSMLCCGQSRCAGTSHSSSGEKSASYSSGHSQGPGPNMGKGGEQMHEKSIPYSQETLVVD
Description: as §1

[14] = tested on: Na+ channel; details: 10 μM; Antagonist; Ion Channel
Description: as §1

[15] = molecular target: T11, H1 (Homo sapiens, UniProt P35367); details: Antagonist, Receptor, read-out: % of specific inhibition
T11 construct: purchased Eurofins Discovery (Cerep) BioPrint Profile Panel
Description: as §1

[16] = molecular target: T12, D1 (Homo sapiens, UniProt P21728); details: Antagonist, Receptor, read-out: % of specific inhibition
T12 construct: purchased Eurofins Discovery (Cerep) BioPrint Profile Panel
T12 sequence (P21728 whole entry): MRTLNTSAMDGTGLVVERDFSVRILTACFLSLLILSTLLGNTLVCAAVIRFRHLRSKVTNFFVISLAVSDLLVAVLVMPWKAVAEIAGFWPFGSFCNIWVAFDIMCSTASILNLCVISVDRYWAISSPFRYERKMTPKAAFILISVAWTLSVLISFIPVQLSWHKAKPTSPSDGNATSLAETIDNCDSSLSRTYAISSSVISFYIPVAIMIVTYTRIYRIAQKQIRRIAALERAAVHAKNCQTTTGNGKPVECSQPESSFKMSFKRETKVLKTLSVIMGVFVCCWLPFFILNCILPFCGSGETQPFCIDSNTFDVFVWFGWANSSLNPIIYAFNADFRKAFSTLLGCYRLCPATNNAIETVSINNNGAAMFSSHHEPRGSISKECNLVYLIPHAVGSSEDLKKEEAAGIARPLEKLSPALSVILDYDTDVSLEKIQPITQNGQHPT
Description: as §1

[17] = molecular target: T13, BB3 (Homo sapiens, UniProt P32247); details: Agonist, Receptor, read-out: % of specific inhibition
T13 construct: purchased Eurofins Discovery (Cerep) BioPrint Profile Panel
Description: as §1

[18] = molecular target: T14, D3 (Homo sapiens, UniProt P35462); details: Antagonist, Receptor, read-out: % of specific inhibition
T14 construct: purchased Eurofins Discovery (Cerep) BioPrint Profile Panel
T14 sequence (P35462 whole entry): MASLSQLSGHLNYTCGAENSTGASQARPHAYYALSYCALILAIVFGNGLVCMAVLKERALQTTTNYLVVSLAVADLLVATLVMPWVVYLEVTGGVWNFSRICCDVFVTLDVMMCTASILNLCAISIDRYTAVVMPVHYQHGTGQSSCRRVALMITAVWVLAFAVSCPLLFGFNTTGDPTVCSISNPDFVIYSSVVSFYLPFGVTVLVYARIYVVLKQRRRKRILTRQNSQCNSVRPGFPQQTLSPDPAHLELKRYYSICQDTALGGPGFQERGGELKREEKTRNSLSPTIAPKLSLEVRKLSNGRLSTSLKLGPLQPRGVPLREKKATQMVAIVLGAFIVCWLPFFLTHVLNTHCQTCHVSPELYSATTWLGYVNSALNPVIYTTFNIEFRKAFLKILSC
Description: as §1

[19] = molecular target: T15, A3 (Homo sapiens, UniProt P0DMS8); details: Agonist, Receptor
T15 construct: purchased Eurofins Discovery (Cerep) BioPrint Profile Panel
T15 sequence (P0DMS8 whole entry): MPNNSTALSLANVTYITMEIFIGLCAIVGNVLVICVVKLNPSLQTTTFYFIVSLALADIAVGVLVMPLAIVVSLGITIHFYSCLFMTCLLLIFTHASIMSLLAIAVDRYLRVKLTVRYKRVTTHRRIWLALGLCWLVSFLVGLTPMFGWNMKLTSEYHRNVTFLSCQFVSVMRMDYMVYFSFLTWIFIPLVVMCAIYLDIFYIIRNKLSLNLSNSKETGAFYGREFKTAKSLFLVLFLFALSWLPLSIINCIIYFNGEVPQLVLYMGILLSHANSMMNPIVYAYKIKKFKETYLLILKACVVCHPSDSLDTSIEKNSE
Description: as §1

[20] = molecular target: T16, 5-HT2B (Homo sapiens, UniProt P41595); details: Agonist, Receptor
T16 construct: purchased Eurofins Discovery (Cerep) BioPrint Profile Panel
T16 sequence (P41595 whole entry): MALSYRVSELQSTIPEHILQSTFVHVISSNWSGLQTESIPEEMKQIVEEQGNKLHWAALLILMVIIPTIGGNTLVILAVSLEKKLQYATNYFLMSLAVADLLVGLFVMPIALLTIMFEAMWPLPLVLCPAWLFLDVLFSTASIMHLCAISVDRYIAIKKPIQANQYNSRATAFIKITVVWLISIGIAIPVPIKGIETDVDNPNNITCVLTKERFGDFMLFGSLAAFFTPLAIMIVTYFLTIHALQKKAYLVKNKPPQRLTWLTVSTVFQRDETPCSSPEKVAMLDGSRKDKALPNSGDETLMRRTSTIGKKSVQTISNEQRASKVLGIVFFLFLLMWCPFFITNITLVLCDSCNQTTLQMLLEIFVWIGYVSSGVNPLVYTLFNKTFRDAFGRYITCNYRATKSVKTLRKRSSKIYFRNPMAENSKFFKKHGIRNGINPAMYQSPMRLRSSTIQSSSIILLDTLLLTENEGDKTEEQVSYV
Description: as §1

[21] = molecular target: T17, glucagon (Homo sapiens, UniProt P47871); details: Agonist, Receptor, read-out: % of specific inhibition
T17 construct: purchased Eurofins Discovery (Cerep) BioPrint Profile Panel
Description: as §1

[22] = molecular target: T18, CRF1 (Homo sapiens, UniProt P34998); details: Agonist, Receptor, read-out: % of specific inhibition
T18 construct: purchased Eurofins Discovery (Cerep) BioPrint Profile Panel
Description: as §1

[23] = tested on: SKCa channel; details: 10 μM; Antagonist; Ion Channel
Description: as §1

[24] = molecular target: T19, MC4 (Homo sapiens, UniProt P32245); details: Agonist, Receptor, read-out: % of specific inhibition
T19 construct: purchased Eurofins Discovery (Cerep) BioPrint Profile Panel
Description: as §1

[25] = molecular target: T20, 5-HT1B (Rattus norvegicus, UniProt P28564); details: Antagonist, Receptor, read-out: % of specific inhibition
T20 construct: purchased Eurofins Discovery (Cerep) BioPrint Profile Panel
Description: as §1

[26] = molecular target: T21, 5-HT2A (Homo sapiens, UniProt P28223); details: Agonist, Receptor, read-out: % of specific inhibition
T21 construct: purchased Eurofins Discovery (Cerep) BioPrint Profile Panel
Description: as §1

[27] = molecular target: T22, N neuronal α4β2 (Homo sapiens, UniProt P17787+P43681); details: Agonist, Receptor, read-out: % of specific inhibition
T22 construct: purchased Eurofins Discovery (Cerep) BioPrint Profile Panel
T22 sequence (P43681 29-627 limits assumed): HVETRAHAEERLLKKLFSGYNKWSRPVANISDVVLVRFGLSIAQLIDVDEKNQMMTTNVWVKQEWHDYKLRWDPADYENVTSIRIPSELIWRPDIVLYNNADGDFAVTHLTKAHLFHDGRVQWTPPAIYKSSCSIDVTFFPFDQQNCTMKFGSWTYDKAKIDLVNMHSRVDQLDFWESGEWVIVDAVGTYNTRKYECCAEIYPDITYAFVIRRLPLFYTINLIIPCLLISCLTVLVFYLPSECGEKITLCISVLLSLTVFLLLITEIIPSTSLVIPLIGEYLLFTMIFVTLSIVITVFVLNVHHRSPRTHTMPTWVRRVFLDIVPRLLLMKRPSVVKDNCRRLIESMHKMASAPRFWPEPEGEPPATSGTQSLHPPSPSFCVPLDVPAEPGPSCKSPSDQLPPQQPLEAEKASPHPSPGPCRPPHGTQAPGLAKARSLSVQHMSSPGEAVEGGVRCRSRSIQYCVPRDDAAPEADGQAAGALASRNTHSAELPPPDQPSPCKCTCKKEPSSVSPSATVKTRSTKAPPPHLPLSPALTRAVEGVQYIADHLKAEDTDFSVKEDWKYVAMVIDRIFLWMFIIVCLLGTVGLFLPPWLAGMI
T22 sequence (P17787 26-502): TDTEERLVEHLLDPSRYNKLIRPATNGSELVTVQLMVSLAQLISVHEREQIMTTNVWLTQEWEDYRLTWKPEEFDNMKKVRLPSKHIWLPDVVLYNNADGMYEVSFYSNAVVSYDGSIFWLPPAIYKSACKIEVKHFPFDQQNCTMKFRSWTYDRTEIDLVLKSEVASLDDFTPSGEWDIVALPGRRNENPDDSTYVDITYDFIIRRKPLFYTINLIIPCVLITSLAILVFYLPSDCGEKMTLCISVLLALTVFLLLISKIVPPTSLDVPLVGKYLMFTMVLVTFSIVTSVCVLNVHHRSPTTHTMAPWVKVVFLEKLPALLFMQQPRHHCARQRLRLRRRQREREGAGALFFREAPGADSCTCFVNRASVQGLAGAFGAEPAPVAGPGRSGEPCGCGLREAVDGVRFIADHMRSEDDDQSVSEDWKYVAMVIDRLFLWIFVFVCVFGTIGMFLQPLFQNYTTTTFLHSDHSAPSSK
Description: as §1

[28] = molecular target: T23, VPAC1 (Homo sapiens, UniProt P32241); details: Agonist, Receptor, read-out: % of specific inhibition
T23 construct: purchased Eurofins Discovery (Cerep) BioPrint Profile Panel
T23 sequence (P32241 31-457): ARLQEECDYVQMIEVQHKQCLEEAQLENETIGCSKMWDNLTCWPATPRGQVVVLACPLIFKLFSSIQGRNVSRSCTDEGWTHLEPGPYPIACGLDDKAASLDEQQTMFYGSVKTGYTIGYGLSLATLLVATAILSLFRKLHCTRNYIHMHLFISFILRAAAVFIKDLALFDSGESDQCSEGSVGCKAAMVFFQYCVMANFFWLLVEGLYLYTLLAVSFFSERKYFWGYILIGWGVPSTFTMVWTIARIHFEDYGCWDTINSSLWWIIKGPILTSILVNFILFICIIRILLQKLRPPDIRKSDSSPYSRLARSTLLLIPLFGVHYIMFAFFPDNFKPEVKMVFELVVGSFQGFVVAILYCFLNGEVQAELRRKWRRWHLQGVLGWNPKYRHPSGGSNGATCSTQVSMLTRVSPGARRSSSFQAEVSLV
Description: as §1

[29] = molecular target: T24, CB1 (Homo sapiens, UniProt P21554); details: Agonist, Receptor, read-out: % of specific inhibition
T24 construct: purchased Eurofins Discovery (Cerep) BioPrint Profile Panel
Description: as §1

[30] = molecular target: T25, NK2 (Homo sapiens, UniProt P21452); details: Agonist, Receptor, read-out: % of specific inhibition
T25 construct: purchased Eurofins Discovery (Cerep) BioPrint Profile Panel
Description: as §1

[31] = tested on: AMPA; details: 10 μM; Agonist; Ion Channel
Description: as §1

[32] = molecular target: T26, ETA (Homo sapiens, UniProt P25101); details: Agonist, Receptor, read-out: % of specific inhibition
T26 construct: purchased Eurofins Discovery (Cerep) BioPrint Profile Panel
Description: as §1

[33] = molecular target: T27, M1 (Homo sapiens, UniProt P11229); details: Antagonist, Receptor, read-out: % of specific inhibition
T27 construct: purchased Eurofins Discovery (Cerep) BioPrint Profile Panel
Description: as §1

[34] = tested on: PCP; details: 10 μM; Antagonist; Ion Channel
Description: as §1

[35] = molecular target: T28, Y1 (Homo sapiens, UniProt P25929); details: Agonist, Receptor, read-out: % of specific inhibition
T28 construct: purchased Eurofins Discovery (Cerep) BioPrint Profile Panel
Description: as §1

[36] = molecular target: T29, CCR2 (Homo sapiens, UniProt P41597); details: Agonist, Receptor, read-out: % of specific inhibition
T29 construct: purchased Eurofins Discovery (Cerep) BioPrint Profile Panel
T29 sequence (P41597 whole entry): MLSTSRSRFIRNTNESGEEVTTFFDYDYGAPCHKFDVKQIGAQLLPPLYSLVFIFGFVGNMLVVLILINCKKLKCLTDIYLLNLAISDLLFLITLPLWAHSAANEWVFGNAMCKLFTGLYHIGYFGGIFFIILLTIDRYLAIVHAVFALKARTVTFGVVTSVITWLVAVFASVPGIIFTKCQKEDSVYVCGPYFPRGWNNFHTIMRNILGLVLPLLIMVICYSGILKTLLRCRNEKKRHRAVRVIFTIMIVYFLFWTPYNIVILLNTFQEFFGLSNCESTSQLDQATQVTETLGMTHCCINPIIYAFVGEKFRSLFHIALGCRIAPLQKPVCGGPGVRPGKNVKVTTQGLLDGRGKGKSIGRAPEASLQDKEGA
Description: as §1

[37] = tested on: glycine; details: 10 μM; Antagonist; Ion Channel
Description: as §1

[38] = molecular target: T30, FP (Homo sapiens, UniProt P43088); details: Agonist, Receptor, read-out: % of specific inhibition
T30 construct: purchased Eurofins Discovery (Cerep) BioPrint Profile Panel
Description: as §1

[39] = molecular target: T31, AT2 (Homo sapiens, UniProt P50052); details: Agonist, Receptor, read-out: % of specific inhibition
T31 construct: purchased Eurofins Discovery (Cerep) BioPrint Profile Panel
T31 sequence (P50052 whole entry): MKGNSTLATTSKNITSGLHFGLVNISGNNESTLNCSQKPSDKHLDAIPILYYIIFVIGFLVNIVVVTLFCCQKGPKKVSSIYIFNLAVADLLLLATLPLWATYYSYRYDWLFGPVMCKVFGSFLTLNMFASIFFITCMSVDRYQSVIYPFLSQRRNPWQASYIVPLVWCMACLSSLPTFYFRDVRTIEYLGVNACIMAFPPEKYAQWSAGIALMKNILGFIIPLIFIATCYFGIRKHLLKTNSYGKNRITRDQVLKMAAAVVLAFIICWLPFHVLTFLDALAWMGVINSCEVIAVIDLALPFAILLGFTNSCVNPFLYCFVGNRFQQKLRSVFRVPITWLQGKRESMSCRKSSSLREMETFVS
Description: as §1

[40] = molecular target: T32, motilin (Homo sapiens, UniProt O43193); details: Agonist, Receptor, read-out: % of specific inhibition
T32 construct: purchased Eurofins Discovery (Cerep) BioPrint Profile Panel
Description: as §1

[41] = tested on: Cl- channel; details: 10 μM; Antagonist; Ion Channel
Description: as §1

[42] = tested on: BZD; details: 10 μM, Agonist, Ion Channel
Description: as §1

[43] = molecular target: T33, norepinephrine transporter (Homo sapiens, UniProt P23975); details: Antagonist, read-out: % of specific inhibition
T33 construct: purchased Eurofins Discovery (Cerep) BioPrint Profile Panel
Description: as §1

[44] = molecular target: T34, EP2 (Homo sapiens, UniProt P43116); details: Agonist, Receptor, read-out: % of specific inhibition
T34 construct: purchased Eurofins Discovery (Cerep) BioPrint Profile Panel
T34 sequence (P43116 whole entry): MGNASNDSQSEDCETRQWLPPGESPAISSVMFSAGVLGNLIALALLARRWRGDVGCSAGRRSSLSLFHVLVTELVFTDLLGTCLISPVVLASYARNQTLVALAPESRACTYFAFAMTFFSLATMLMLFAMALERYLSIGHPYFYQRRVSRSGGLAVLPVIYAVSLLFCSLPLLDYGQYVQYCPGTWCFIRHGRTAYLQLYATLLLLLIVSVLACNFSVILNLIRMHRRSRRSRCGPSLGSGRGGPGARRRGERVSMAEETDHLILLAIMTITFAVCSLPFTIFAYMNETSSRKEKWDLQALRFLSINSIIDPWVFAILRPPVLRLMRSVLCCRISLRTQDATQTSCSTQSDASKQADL
Description: as §1

[45] = tested on: Ca2+ channel; details: 10 μM, Antagonist, Ion Channel
Description: as §1

[46] = molecular target: T35, ETB (Homo sapiens, UniProt P24530); details: Agonist, Receptor, read-out: % of specific inhibition
T35 construct: purchased Eurofins Discovery (Cerep) BioPrint Profile Panel
Description: as §1

[47] = read-out: % Inhibition of Control Specific Binding

SMILES: O=c1cc(-c2ccccc2)oc2c(O)c(O)ccc12 [7,8-DHF, 7,8-dihydroxyflavone]
- inhibition at 10 µM [1]: -3%
- inhibition at 10 µM [2]: 0%
- inhibition at 10 µM [3]: 20%
- inhibition at 10 µM [4]: -11%
- % of specific inhibition [5]: 3%
- inhibition at 10 µM [6]: -7%
- inhibition at 10 µM [7]: -6%
- % of specific inhibition [8]: -20%
- % of specific inhibition [9]: 11%
- inhibition at 10 µM [10]: 21%
- inhibition at 10 µM [11]: 15%
- inhibition at 10 µM [12]: -2%
- inhibition at 10 µM [13]: 4%
- % of specific inhibition [14]: -11%
- inhibition at 10 µM [15]: -5%
- inhibition at 10 µM [16]: -4%
- inhibition at 10 µM [17]: 11%
- inhibition at 10 µM [18]: 2%
- % Inhibition of Control Specific Binding ([19]; 10 μM): 68.2%
- inhibition at 10 µM [19, 47]: 68%
- % Inhibition of Control Specific Binding ([20]; 10 μM): 50.2%
- inhibition at 10 µM [20, 47]: 50%
- inhibition at 10 µM [21]: 3%
- inhibition at 10 µM [22]: 5%
- % of specific inhibition [23]: 4%
- inhibition at 10 µM [24]: -5%
- inhibition at 10 µM [25]: 3%
- inhibition at 10 µM [26]: -4%
- inhibition at 10 µM [27]: 5%
- inhibition at 10 µM [28]: -13%
- inhibition at 10 µM [29]: 1%
- inhibition at 10 µM [30]: -2%
- % of specific inhibition [31]: 7%
- inhibition at 10 µM [32]: -10%
- inhibition at 10 µM [33]: -4%
- % of specific inhibition [34]: -3%
- inhibition at 10 µM [35]: 8%
- inhibition at 10 µM [36]: 4%
- % of specific inhibition [37]: -1%
- inhibition at 10 µM [38]: 6%
- inhibition at 10 µM [39]: 6%
- inhibition at 10 µM [40]: -2%
- % of specific inhibition [41]: -7%
- % Inhibition of Control Specific Binding [42]: 71% and 70.6%
- inhibition at 10 µM [43]: -1%
- inhibition at 10 µM [44]: 2%
- % of specific inhibition ([45]; first unspecified Ca2+ channel entry): -4%
- % of specific inhibition ([45]; second unspecified Ca2+ channel entry): -6%
- inhibition at 10 µM [46]: -26%
